The results in this text go back to US20050127321A1, “Compositions containing lactone compatibilizers” (priority 2003, published 2005).

Tested on in the first data set: not listed separately
The data set is described as follows: Phase separation temperature of compatibilizer / Zerol 150 alkylbenzene oil / R134a mixtures (cloud point on cooling). Format: physicochemical. The note with it: near 25.0 wt % Zerol 150 : 25.0 wt % compatibilizer : 50.0 wt % R134a, cooled in one degree intervals. Here is the method: The phase separation temperatures for lactone compatibilizers of the present invention when combined with Zerol® 150 alkylbenzene oil were determined. […] The glass tube was sealed at one end, and the other end was sealed to a Teflon® vacuum valve stopcock. This entire apparatus was tared, and was attached at valve E to a high vacuum line capable of achieving 10^−4 to 10^−5 torr (See FIG. 1). The pressure was measured by a mercury manometer, F. All five valves, A, B, C, D and E were attached to the manifold via greased ground-glass joints. Valve A joined the manifold to the source of refrigerant. Valve B joined a flask comprising fluorocarbon refrigerant, once loaded into the manifold. Valve C joined a 125.5 mL calibrated vessel to the manifold. And valve D joined a 5 mm OD in leg glass tube 150 mm in length containing oil and compatibilizer.
The glass tube, refrigerant container, and calibrated volume were evacuated by opening valve B, C, D, and E, and keeping valve A closed. After vacuum was achieved, Valve D and E were closed. An atmosphere of refrigerant was introduced into the vacuum line by opening Valve A. After closing valve A, the refrigerant was condensed into the refrigerant container by cooling with a liquid nitrogen bath. Valve E was opened to remove any residual air. Valve E was closed, and the refrigerant container was allowed to warm until the desired pressure was reached as indicated on the mercury manometer whereupon Valve C was closed trapping a known amount of refrigerant in the calibrated volume. The excess refrigerant was condensed back into the refrigerant container by cooling with a liquid nitrogen bath, Valve B was closed, and Valve E was opened to remove all residual gases. The glass tube was cooled in a liquid nitrogen bath, and the refrigerant was transferred from the calibrated volume to the glass tube by closing Valve E, and opening Valves C and D. Valve D was then sealed after all the refrigerant had transferred into the glass tube. The glass tube apparatus was removed from the vacuum line, and the tube was allowed to warm while maintaining the tube behind appropriate protective shielding for safety purposes throughout the rest of the procedure owing to the positive pressure in the glass tube. After removal of grease from the ground glass joint, the previously tared glass tube apparatus was weighed to ensure the appropriate mass of refrigerant had been added to the tube. In a typical experiment, the composition in the tube was near 50.0 wt % R134a, 25.0 wt % Zerol® 150 and 25.0 wt % of compatibilizer.
The phase separation temperature of the mixture was determined by manually shaking the contents of the glass tube while cooling the mixture by one degree Centigrade intervals until a cloudpoint/phase separation was visually observed. Results are shown in Table II in comparison with an amide compatibilizer, N-octyl-pyrrolidin-2-one.
On to `CC[C@@H]1C[C@H](C)OC1=O` (relative stereo) [cis-3-ethyl-5-methyl-dihydro-furan-2-one], for which the “Phase Separation Temperature” value was more than 25 deg C.

Take `CC(CC=C1C[C@@H](C)OC1=O)CC(C)(C)C` (stereo partly drawn) [(E,Z)-3-(3,5,5-trimethylhexylidene)-5-methyl-dihydrofuran-2-one]: the “Phase Separation Temperature” value is given as 3 deg C.

With `CCC1CCC(=O)O1` (stereo not drawn) [gamma-caprolactone, reference compound], the “Phase Separation Temperature” value is recorded as “Immiscible with Zerol ®150”.

For the molecule “(E,Z)-3-decylidene-5-methyl-dihydro-furan-2-one”, the “Phase Separation Temperature” value is on record as 13 deg C.

Take `CCCCC1CCC(=O)O1` (stereo not drawn) [gamma-octalactone]: the “Phase Separation Temperature” value was 10 deg C.

Take `CCCCCCCC=C1CC(C)OC1=O` (stereo not drawn) [(E,Z)-3-octylidene-5-methyl-dihydro-furan-2-one]: the “Phase Separation Temperature” value is reported as −8 deg C.

As for `CCCCCCCCC=C1CC(C)OC1=O` (stereo not drawn) [(E,Z)-3-nonylidene-5-methyl-dihydro-furan-2-one], the “Phase Separation Temperature” value turned out to be 4 deg C.

For `CCCCCCC1CCCC(=O)O1` (stereo not drawn) [delta-undecalactone], the “Phase Separation Temperature” value was −12 deg C.

On to `CCCCCC[C@]1(C)CCC(=O)O1` (stereo in doubt) [5-methyl-5-hexyl-dihydro-furan-2-one], for which the “Phase Separation Temperature” value was −2 deg C.

For `CC(CC[C@@H]1C[C@H](C)OC1=O)CC(C)(C)C` (relative stereo) [cis-3-(3,5,5-trimethylhexyl)-5-methyl-dihydro-furan-2-one], the “Phase Separation Temperature” value is 2 deg C.

Regarding `CCCCC=C1CC(C)OC1=O` (stereo not drawn) [(E,Z)-3-pentylidene-5-methyl-dihydro-furan-2-one], the “Phase Separation Temperature” value worked out at 0 deg C.

As for `CCCCCC=C1CC(C)OC1=O` (stereo not drawn) [(E,Z)-3-Hexylidene-5-methyl-dihydro-furan-2-one], the “Phase Separation Temperature” value is −7 deg C.

Regarding `CCCCCCCCC1CCC(=O)O1` (stereo not drawn) [gamma-dodecalactone], the “Phase Separation Temperature” value was −6 deg C.

On to `CCCCCC1CCCC(=O)O1` (stereo not drawn) [delta-decalactone], for which the “Phase Separation Temperature” value is −10 deg C.

In the case of `CCCCCC1CCC(=O)O1` (stereo not drawn) [gamma-nonalactone], the “Phase Separation Temperature” value was −2 deg C.

With `O=C1OC[C@H]2CCCC[C@@H]12` (stereo in doubt) [Hexahydro-isobenzofuran-1-one], the “Phase Separation Temperature” value stood at 4 deg C.

On to `CCCCC[C@@H]1C[C@H](C)OC1=O` [cis-(3-pentyl-5-methyl)-dihydro-furan-2-one], for which the “Phase Separation Temperature” value is reported as −1 deg C.

In the case of `CC1C/C(=C/C2CCCCC2)C(=O)O1` (stereo not drawn) [(E,Z)-3-cyclohexylmethylidene-5-methyl-dihydrofuran-2-one], the “Phase Separation Temperature” value was −2 deg C.

For `CCC[C@@H]1C[C@H](C)OC1=O` [cis-(3-propyl-5-methyl)-dihydro-furan-2-one], the “Phase Separation Temperature” value was found to be 14 deg C.

As to `CCCCCCCC1CCOC1=O` (stereo not drawn) [3-heptyldihydro-furan-2-one], the “Phase Separation Temperature” value stood at 0 deg C.

For the molecule `CCCCCCC1CCC(=O)O1` (stereo not drawn) [gamma-decalactone], the “Phase Separation Temperature” value is −3 deg C.

With `CCCCCC[C@@H]1C[C@H](C)OC1=O` (relative stereo) [cis-3-hexyl-5-methyl-dihydro-furan-2-one], the “Phase Separation Temperature” value is recorded as −9 deg C.

As for `CCCC[C@@H]1C[C@H](C)OC1=O` [cis-(3-butyl-5-methyl)-dihydro-furan-2-one], the “Phase Separation Temperature” value was determined as 10 deg C.

Take `CC=C1CC(C)OC1=O` (stereo not drawn) [(E,Z)-3-ethylidene-5-methyl-dihydro-furan-2-one]: the “Phase Separation Temperature” value is 24 deg C.

`CCCCCCCCN1CCCC1=O` [N-octylpyrrolidin-2-one, reference compound]: the “Phase Separation Temperature” value was −4 deg C.

Take `CCCC=C1CC(C)OC1=O` (stereo not drawn) [(E,Z)-3-butylidene-5-methyl-dihydro-furan-2-one]: the “Phase Separation Temperature” value turned out to be 9 deg C.

For `CCCCCCCC1CCCC(=O)O1` (stereo not drawn) [delta-dodecalactone], the “Phase Separation Temperature” value was −13 deg C.

`CCCCCCC1CCOC1=O` (stereo not drawn) [3-hexyldihydro-furan-2-one]: the “Phase Separation Temperature” value stood at 5 deg C.

For `CCCCOC(=O)c1ccccc1C(=O)OCCCC` [dibutyl phthalate, reference compound], the “Phase Separation Temperature” value stood at 18 deg C.

For the molecule `CCCCCCC[C@@H]1C[C@H](C)OC1=O` (relative stereo) [cis-3-heptyl-5-methyl-dihydro-furan-2-one], the “Phase Separation Temperature” value is reported as “phase gelled and/or precipitated at −11 deg C”.

On to `CCCCCCCC[C@]1(C)CCC(=O)O1` (stereo in doubt) [5-methyl-5-octyl-dihydro-furan-2-one], for which the “Phase Separation Temperature” value is given as −4 deg C.

On to `CCC=C1CC(C)OC1=O` (stereo not drawn) [(E,Z)-3-propylidene-5-methyl-dihydro-furan-2-one], for which the “Phase Separation Temperature” value worked out at 12 deg C.

As to `CCCCCCC=C1CC(C)OC1=O` (stereo not drawn) [(E,Z)-3-Heptylidene-5-methyl-dihydro-furan-2-one], the “Phase Separation Temperature” value is listed as −6 deg C.

Tested on in another data set: not listed separately
The data set can be described thus: Kinematic viscosity of lactone compatibilizers. The format is physicochemical. The note with it: at 40° C.
`CCCCCC[C@@H]1C[C@H](C)OC1=O` (relative stereo) [cis-3-hexyl-5-methyl-dihydro-furan-2-one] had a kinematic viscosity of 4.5 centistokes.

A further data set deals with New Zealand White rabbits. The data set can be described thus: Acute skin irritation/corrosive potential, scored on the Draize scale. The format is in vivo. The note with it: 0.5 mL undiluted, approximately 4 hours exposure, semi-occlusive, evaluated up to 72 hours. The protocol: Compositions of the present invention were evaluated for acute skin irritation/corrosive potential in New Zealand White rabbits. An aliquot of 0.5 mL of undiluted compatibilizer was administered to a localized site on the backs of the animals. The test sites were covered with a semi-oclusive dressing to ensure contact between the skin and the test substance. The animals were exposed to the test substances for approximately 4 hours. The test sites were evaluated for erythrema, edema, and other evidence of dermal effects for up to 72 hours following the removal of the test substance. Observed dermal effects were scored according to the Draize scale. The reversibility of dermal effects was assessed for up to 14 days, as necessary.
For `CC1CCC(=O)N1C1CCCCC1` (stereo not drawn) [5-methyl-n-cyclohexyl pyrrolidin-2-one], the Classification entry is recorded as “Corrosive” and the “Observations (dermal effects)” value is “Necrosis”.

Take `CCCCCCCCC(=O)N(C)C` [N,N-Dimethylnonanamide]: the Classification result is reported as “Severe irritant”.

For the molecule `CCCCCCC1CC(C)OC1=O` (stereo not drawn) [3-hexyl-5-methyl-gammabutyrolactone], the Classification result is on record as “Not a skin irritant” and the “Observations (dermal effects)” value is reported as “No irritation”.

On to `CCCCCCCCN1CCCC1=O` [N-octylpyrrolidin-2-one, reference compound], for which the Classification result is “Severe irritant”.

As for 5-methyl-n-octyl-pyrrolidin-2-one, the Classification entry was “Corrosive” and the “Observations (dermal effects)” value is on record as “Necrosis”.
